{"source": "patent US20240092741A1", "about": "“COMPOSITION FOR PREVENTION OR TREATMENT OF NEUROFIBROMATOSIS TYPE 2 SYNDROME” (PRG S&TECH INC., priority 2021, published 2024)", "key": {"[1]": {"biological_target": "T1, interaction between TβR1 and RKIP (Homo sapiens, UniProt P30086+P36897)", "T1 construct": "host or cells: HEK293 (TβR1 lysate)", "assay": "GST-pull down assay of TβR1-RKIP interaction", "format": "binding", "description": "(§1) For protein-protein interaction analysis, glutathione S-transferase (GST)-pull down assay was performed. For GST-pull down, agarose-bead-conjugated GST-RKIP recombinant protein was reacted with FLAG-tagged TβR1-transfected HEK 293 cell lysates in PBS buffer at 4° C. for 1 hour. Immunoprecipitation (IP) assay was performed by reacting with FLAG-tagged TβR1- or HA-tagged RKIP-transfected HEI-193 cell lysates in PBS buffer. Whole lysates were reacted with appropriate primary antibodies at 4° C. for 2 hours and with agarose-bead-conjugated protein A/G (Invitrogen, Carlsbad, CA, USA) for 2 hours. After centrifugation, the precipitates were washed twice with RIPA buffer and subjected to SDS-PAGE and western blotting analysis.", "T1 sequence (P30086 whole entry, one chain of several)": "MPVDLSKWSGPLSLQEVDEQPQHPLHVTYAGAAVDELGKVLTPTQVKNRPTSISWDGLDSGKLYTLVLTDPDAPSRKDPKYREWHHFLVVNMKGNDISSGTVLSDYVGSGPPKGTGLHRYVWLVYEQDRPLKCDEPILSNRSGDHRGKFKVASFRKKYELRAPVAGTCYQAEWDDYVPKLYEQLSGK"}, "[2]": {"biological_target": "T2, interaction between TβR1 and RKIP (Homo sapiens, UniProt P30086+P36897)", "T2 construct": "host or cells: HEI-193", "T2 sequence (P36897 34-503)": "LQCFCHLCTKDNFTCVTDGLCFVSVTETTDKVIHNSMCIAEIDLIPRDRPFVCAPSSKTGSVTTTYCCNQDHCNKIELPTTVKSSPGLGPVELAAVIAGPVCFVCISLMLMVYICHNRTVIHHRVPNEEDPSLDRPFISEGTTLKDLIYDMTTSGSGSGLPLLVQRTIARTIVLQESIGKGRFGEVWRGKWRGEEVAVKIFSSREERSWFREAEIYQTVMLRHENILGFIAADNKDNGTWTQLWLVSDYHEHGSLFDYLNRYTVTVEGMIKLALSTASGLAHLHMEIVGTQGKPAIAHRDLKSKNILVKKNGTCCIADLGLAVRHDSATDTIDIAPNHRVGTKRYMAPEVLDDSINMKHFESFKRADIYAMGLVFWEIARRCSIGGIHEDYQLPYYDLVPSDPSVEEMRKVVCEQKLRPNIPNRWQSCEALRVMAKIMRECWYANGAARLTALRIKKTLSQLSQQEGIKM", "T2 sequence (P30086 2-187 limits assumed)": "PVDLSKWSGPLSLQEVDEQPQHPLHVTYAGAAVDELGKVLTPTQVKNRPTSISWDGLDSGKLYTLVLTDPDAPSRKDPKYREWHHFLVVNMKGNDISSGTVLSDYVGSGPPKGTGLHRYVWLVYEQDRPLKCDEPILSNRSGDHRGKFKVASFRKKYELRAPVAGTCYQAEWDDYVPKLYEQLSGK", "assay": "Immunoprecipitation of TβR1-RKIP interaction in transfected HEI-193 cells", "format": "cell-based", "conditions": "FLAG-TβR1- or HA-RKIP-transfected HEI-193 cells, indicated concentrations, 6 h (FIGS. 8A, 9A)", "description": "as §1"}, "RKIP": {"tested_on": "RKIP", "assay": "Immunoblotting of transfected wild-type and mutant RKIP", "format": "cell-based", "conditions": "10 μM, 24 h (FIG. 8E)", "description": "pCMV RKIP-HA was provided by Keum G (David Geffen School of Medicine at University of California, Los Angeles, CA, USA). pCMV RKIP-T101A-HA and pCMV RKIP-T101D-HA were generated by Dr. J. H. Hwang (Pusan National University). pcDNA3 NF2-FLAG, pRK5 TGF beta type 1 receptor-FLAG, and TGF beta type 2 receptor-HA were obtained from Addgene (Cambridge, MA, USA). Transfection was performed using the Jetpei transfection agent (Polyplus New York, USA) for mammalian expression of these vectors.\nIn other words, cells were seeded at a density of 2×10^5 cells/well in 12-well plates and cultured overnight before transfection. The vector (1.5 μg) was mixed with 1.5 μl of Jetpei reagent dissolved in 150 mM NaCl solution. The mixture was reacted at room temperature for 15 minutes, and then added to the cells. After 3 hours, the serum-free medium 15 was replaced with medium supplemented with 10% FBS.\nCells were harvested and lysed using RIPA buffer [50 mM Tris-Cl, pH 7.5, 150 mM NaCl, 1% NP-40, 0.1% SDS, and 10% sodium deoxycholate] to examine cellular signaling. Protein concentrations in samples were measured using Bio-Rad (Hercules, CA, USA) protein assay kits and BSA standards. […] The blots were detected using an HRP-conjugated secondary antibody using ECL kit (Intron, Seoul, Korea)."}, "HEI-193 cells [3]": {"tested_on": "HEI-193 cells", "assay": "RT-PCR gene expression in HEI-193 cells", "format": "cell-based, human", "description": "For RT-PCR, total cellular RNA was extracted using an RNA extraction kit (Qiagen). Gene expression analysis was performed using cDNA synthesized from total RNA with MMLV RT (Invitrogen, Carlsbad, USA) and random hexamer. PCR from genomic DNA was performed using DiaStar Taq DNA polymerase (SolGent, Daejeon, Korea), and gene expression analysis was performed using the following specific primers: […]"}, "HEI-193 cells [4]": {"tested_on": "HEI-193 cells", "assay": "FACS analysis and IF staining of schwann cell markers in HEI-193 cells", "format": "cell-based, human", "conditions": "7 days, compared with TEW7197 (FIG. 12F)", "description": "Cells were seeded on cover glass, washed with PBS, fixed with 4% paraformaldehyde (PFA) for 30 minutes at room temperature, and then permeabilized with 0.2% Triton X-100 at room temperature for 5 minutes. After treatment with blocking buffer [3% goat serum diluted in PBS] for 1 hour, cells were reacted with the specified antibody in the blocking buffer overnight at 4° C. Finally, the cells were reacted with secondary antibodies conjugated with FITC or rhodamine at 4° C. for 7 hours. The nuclei were stained with DAPI at room temperature for 10 minutes. After the cells were washed 3 times with PBS, the cover glass was mounted with a mounting solution (H-5501, Vector Laboratories, Cambridgeshire, UK) and immunofluorescence signals were detected using a fluorescence microscopy (Zeiss, Jena, Germany). In addition, for flow cytometry, cells were seeded in a 6-well plate and reacted with DMSO (control group), PRG-N-01 (5 μM), or TEW7197 (5 μM), respectively. After 4 days, the cells were fixed with 70% ethanol and labeled with propidium iodine. These samples were analyzed by FACS for cell-cycle analysis. […] A minimum of 10,000 cells were analyzed using an Attune NxT Flow cytometer (Thermo Fisher Scientific, Inc., Rockford, IL, USA)."}}}
{"smiles": "CCN(CC)CCOc1ccc(-c2nnn(Cc3ccc(OC)cc3)c2N)cc1", "note": "[PRG-N-01, 4-(4-(2-(diethylamino)ethoxy)phenyl)-1-(4-methoxybenzyl)-1H-1,2,3-triazol-5-amino]", "values": [{"measurement": "interaction between TβR1 and RKIP at low concentrations", "setting": "[1]; GST pull-down, low concentrations (FIG. 6B)", "result": "showed an inhibitory effect even at low concentrations"}, {"measurement": "interaction between TβR1 and RKIP", "setting": "[1]; GST-RKIP beads with TβR1-transfected HEK293 lysates, 5 and 10 μM, 2 h (FIG. 5B)", "result": "inhibited the interaction between TβR1 and RKIP in a dose-dependent manner"}, {"measurement": "binding between TβR1 and RKIP (IP)", "setting": "[2]", "result": "interrupted the binding in a dose-dependent manner"}, {"measurement": "wild-type RKIP expression", "setting": "RKIP; HEI-193 and mouse schwannoma cells transfected with WT RKIP", "result": "induced wild-type RKIP expression"}, {"measurement": "expression of RKIP mutants (T101A stable form, T101D unstable form)", "setting": "RKIP; HEI-193 and mouse schwannoma cells transfected with mutants", "result": "did not alter the expression"}, {"measurement": "expression of cell cycle-related genes (CDK1, CDK4, CCNB1, PLK4)", "setting": "HEI-193 cells [3]; RT-PCR (FIG. 12D)", "result": "decreased"}, {"measurement": "expression of schwann cell markers (PLP, MBP, GFAP MPZ, PMP22, SOX10)", "setting": "HEI-193 cells [3]; RT-PCR (FIGS. 12D, 13C)", "result": "increased"}, {"measurement": "schwann cell markers (FACS analysis)", "setting": "HEI-193 cells [4]", "result": "clearly increased schwann cell markers compared to TEW7197"}]}
